Experimental data: US20260027190A1, “OVARIAN TUMOR DEUBIQUITINASE OXIDATION AND USES THEREOF” (The University of Vermont and State Agricultural College, priority 2022, published 2026)
Residues, ends and D or L forms follow the SMILES beside them. *: point of attachment. Cbz = O=C(OCc1ccccc1)*

Experiments:
[1] = test system: mouse tracheal epithelial (MTE) cells; assay: Total GSH measurement (DTNB assay) in MTE cells; format: cell-based
Protocol: It has been previously shown that the pleotropic cytokine IL1B augments glycolysis in lung epithelial cells, and that interleukin 1B (IL1B) is linked to oxidative stress. The pentose phosphate pathway, an offshoot of glycolysis, regulates the redox environment by providing nicotinamide adenine dinucleotide phosphate (NADPH) reducing equivalents necessary for glutathione (GSH) homeostasis. The effects of GSH in response to IL1B were examined. Briefly, GSH was measured using a 5,5′-dithio-bis (2-nitrobenzoic acid) (DTNB) assay in both control and IL1B-stimulated mouse tracheal epithelial cells. […] Statistics on the left panel represent the total GSH levels, without differentiating between labeled and unlabeled portions of GSH (P-value*<0.05, ****<0.0001).
(§1) A regulator of GSH homeostasis is the transporter system xC-, which exports glutamate and concomitantly imports cystine in a 1:1 ratio. Once inside the cells, cystine is reduced to two cysteines, the latter being the rate limiting amino acid required for GSH synthesis. These relationships were examined further. […] To address whether IL1B-induced increases in GSH are system xC- dependent, two system xC- inhibitors, erastin (Er) and sulfasalazine (SAS) were used. Cells were pretreated for one hour, followed by IL1B treatment for 24 hours. Then, GSH levels were measured in cells exposed to increasing doses of Er or SAS (FIG. 2G). Extracellular glutamate levels in cell culture supernatant of cells pretreated with 0.5 micromolar Er (left) or 100 micromolar SAS (right) for 1 hour before IL1B stimulation were also measured (FIG. 2H). […] System xC- inhibition is known to induce ferroptosis, an iron-dependent mode of cell death characterized by increased lipid peroxidation. However, no changes in cell viability using erastin (5 micromolar) or sulfasalazine (500 micromolar) were detected (FIG. 2I; P-value*<0.05, ***<0.001, ****<0.0001).
(§2) Primary mouse tracheal epithelial (MTE) cells were isolated from C57BL/6NJ wild-type or C57BL6/NJ mice lacking Glrx1 gene and cultured. Cells were grown on collagen coated plastic plates or transwell inserts with media change every 2 days until confluency. For interleukin 1B (IL1B) treatment: cells were incubated in plain Dulbecco's Modified Eagle Medium (DMEM): F12 media containing 6 mM glucose and 2 mM glutamine overnight followed by stimulation with 10 ng/ml IL1B or 0.1% bovine serum albumin (BSA) in phosphate buffered saline (PBS) (vehicle control) for 24 hours. Treatment with crastin, sulfasalazine or BSO occurred 1 hour before IL1B stimulation. Media and cells were collected for further analysis. For growing H522 and OTUB1-CRISPR-H522 cells: Roswell Park Memorial Institute (RPMI) media supplemented with 10% fetal bovine serum (FBS) and 1% pen/strep was used to grow the cells. Plasmid over-expression and OTUB1 knock-down experiments were done when cells were 60-70% confluent.
Cell lysates were prepared in 100 mM potassium phosphate buffer containing 0.6% sulfosalicylic acid, 1 mM ethylenediaminetetraacetic acid (EDTA) and 0.01% triton-x-100. To measure total glutathione (GSH), equal amounts of proteins were incubated with 3 micromolar 5,5′-dithio-bis (2-nitrobenzoic acid) (DTNB) reagent and 2.25 microgram/ml glutathione reductase followed by the addition of 240 micromolar Nicotinamide adenine dinucleotide phosphate (NADPH). Kinetic absorbance was measured every minute at 412 nm for 20 minutes. […]

[2] = test system: mouse tracheal epithelial (MTE) cells; assay: Extracellular glutamate in cell culture supernatant of MTE cells; format: cell-based
Source text: as §1, §2
Glutamate in media was measured using Biovision kit following manufacturer's protocol.

SLC7A11 = SLC7A11 non-reducing Western blot in MTE cells; format: cell-based, mouse; conditions: MG132 5 micrograms/ml, 24 hours
Protocol: OTUB1 was previously shown to interfere with ubiquitination and subsequent proteasomal degradation of SLC7A11. A SLC7A11 non-reducing Western blot using MTE cells pretreated with 5 micrograms/ml MG132 or 10 ng/ml IL1B for 24 hours with ACTB used as a loading control was performed (FIG. 7A). In addition, an assessment of GSH levels in MG132-(5 micrograms/ml, 24 hours) (FIG. 7B, left) or bortezomib-(FIG. 7B, right) (0.3 micromolar, 24 hours) treated MTE cells was undertaken (P-value***<0.001, ****<0.0001). Extracellular glutamate levels in MG132-treated MTE cells were also assessed (5 micrograms/ml, 24 hours) (FIG. 7C) (P-value***<0.001, ****<0.0001). The proteasome inhibitors MG132 or bortezomib increased SCL7A11, GSH and extracellular glutamate levels in tracheal epithelial cells (FIGS. 7A-7C), identifying the importance of proteasomal degradation of SLC7A11 in regulating system xC- and glutathione levels.
Bio-Rad DC protein estimation kit was used to determine protein concentration in cell lysates. Equal amounts of proteins were resolved using sodium dodecyl sulfate (SDS)-polyacrylamide gel electrophoresis and transferred to polyvinylidene difluoride (PVDF) membranes, blocked in 5% BSA and incubated with primary antibodies overnight. Membranes were subsequently incubated with peroxidase-conjugated secondary antibodies for one hour and then visualized using chemiluminescence.

[3] = test system: mouse tracheal epithelial (MTE) cells; assay: Calcein AM cell viability in MTE cells; format: cell-based; conditions: sulfasalazine 500 micromolar
Source text: Invitrogen Live/Dead viability/cytotoxicity kit was used to measure cell viability according to manufacturer's instruction. Data was expressed as percentage survival compared to control untreated cells.

[4] = test system: mouse tracheal epithelial (MTE) cells; assay: Total PSSG in MTE cells treated with recombinant GLRX; format: cell-based; conditions: direct administration of recombinant protein to MTE cells
Protocol: OTUB1 was one of the PSSG targets detected in IL1B-stimulated epithelial cells raising the possibility that S-glutathionylation of OTUB1 affects the stability of SLC7A11. To investigate this, immunoprecipitation of GSH followed by Western Blotting of OTUB1 in MTE cells treated with vehicle or IL1B was performed. Dithiothreitol (DTT) was incubated with cell lysates prior to immunoprecipitation as a negative control. OTUB1 levels from whole cell lysates were used as the input control. Increases in OTUB1 S-glutathionylation (OTUB1-SSG) in response to IL1B were observed, with further increases occurring in cells lacking Glrx (FIG. 4G), consistent with the role of GLRX as a deglutathionylating enzyme. Western blots were performed using cells treated with the WT- or C23S-mutant GLRX recombinant protein to examine the presence of glutaredoxin (FIG. 4H) and total PSSG (FIG. 4I) (P-value*<0.05, **<0.01, ***<0.001, ****<0.0001). […] Glutathione was evaluated in MTE cells treated with recombinant WT- or C23S-mutant GLRX (FIG. 4J) and glutamate in cell culture supernatant of MTE cells treated with WT or the C23S mutant GLRX was also evaluated (FIG. 4K). […]
Cell lysates were prepared in 100 mM potassium phosphate buffer containing 0.6% sulfosalicylic acid, 1 mM ethylenediaminetetraacetic acid (EDTA) and 0.01% triton-x-100. […] Kinetic absorbance was measured every minute at 412 nm for 20 minutes. […]

OTUB1 = assay: OTUB1-SSG: GSH immunoprecipitation followed by OTUB1 Western blot; format: cell-based, mouse; conditions: cells treated with recombinant protein
Protocol: OTUB1 was one of the PSSG targets detected in IL1B-stimulated epithelial cells raising the possibility that S-glutathionylation of OTUB1 affects the stability of SLC7A11. To investigate this, immunoprecipitation of GSH followed by Western Blotting of OTUB1 in MTE cells treated with vehicle or IL1B was performed. Dithiothreitol (DTT) was incubated with cell lysates prior to immunoprecipitation as a negative control. OTUB1 levels from whole cell lysates were used as the input control. Increases in OTUB1 S-glutathionylation (OTUB1-SSG) in response to IL1B were observed, with further increases occurring in cells lacking Glrx (FIG. 4G), consistent with the role of GLRX as a deglutathionylating enzyme. Western blots were performed using cells treated with the WT- or C23S-mutant GLRX recombinant protein to examine the presence of glutaredoxin (FIG. 4H) and total PSSG (FIG. 4I) (P-value*<0.05, **<0.01, ***<0.001, ****<0.0001). GAPDH was used as a loading control. Glutathione was evaluated in MTE cells treated with recombinant WT- or C23S-mutant GLRX (FIG. 4J) and glutamate in cell culture supernatant of MTE cells treated with WT or the C23S mutant GLRX was also evaluated (FIG. 4K). […]

[5] = MG132 5 micrograms/ml, 24 hours, MTE cells
[6] = direct administration of recombinant protein to MTE cells

## CC(C)C[C@@H](C=O)NC(=O)[C@H](CC(C)C)NC(=O)[C@H](CC(C)C)NC(=O)OCc1ccccc1 [MG132] (Cbz-Leu-Leu-Leu-aldehyde)
[1]; [5]
  GSH levels: increased
[2]; [5]
  extracellular glutamate levels: increased
SLC7A11
  SLC7A11 levels: increased

## CC(C)C[C@H](NC(=O)[C@H](Cc1ccccc1)NC(=O)c1cnccn1)B(O)O [bortezomib]
[1]; bortezomib 0.3 micromolar, 24 hours, MTE cells
  GSH levels: increased

## O=C(O)c1cc(/N=N/c2ccc(S(=O)(=O)Nc3ccccn3)cc2)ccc1O [sulfasalazine]
[1]; MTE cells pretreated 1 hour with increasing doses of Er or SAS, then IL1B 24 hours
  IL1B-induced increases in GSH: significantly decreased
[2]; MTE cells pretreated with 100 micromolar SAS for 1 hour before IL1B stimulation
  IL1B-induced extracellular glutamate levels: significantly decreased
[3]
  cell viability: no changes

B1: C23S GLRX: catalytically inactive C23S mutant GLRX recombinant protein (protein, UniProt P35754 2-106, looked up, variant C23S)
Glutaredoxin-1: AQEFVNCKIQPGKVVVFIKPTSPYCRRAQEILSQLPIKQGLLEFVDITATNHTNEIQDYLQQLTGARTVPRVFIGKDCIGGCSDLVSLQQSGELLTRLKQIGALQ
[1]; [6]
  GSH levels: did not elicit these effects
[2]; [6]
  extracellular glutamate: did not elicit these effects
[4]
  overall PSSG: did not elicit these effects
OTUB1
  OTUB1-SSG (OTUB1 S-glutathionylation): not
